“Also recorded” adds a separate entry of the source.
Legend:
DSS colitis = DSS colitis with fluconazole in the drinking water (anti-fungal therapy); type: in vivo, mouse; details: Clec7a−/− mice; for weight loss during colitis: fluconazole 0.5 mg/ml in drinking water for 14 days starting 2 days prior to DSS, 2.5% DSS 7 days, effect from day 9 (p<0.05)
Protocol: WT and Clec7a−/− mice were cohoused for three weeks prior the experiments. Alternatively, WT and Clec7a−/− littermates were used where indicated. For the induction of colitis, mice were given drinking water supplemented with 2.5% (w/v) Dextran sulphate sodium (DSS, MP Biomedicals, LLC, Aurora, Ohio) for 7 days and sacrificed at day 12. For ablation of intestinal fungi, mice were given Fluconazole (0.5 mg/ml, Sigma) in the drinking water for total of 14 days starting 2 days prior the induction of DSS colitis. In some experiments, prior and upon colitis induction, mice were supplemented every other day with four doses (1×108 yeast/mouse/dose) of Candida tropicalis or Saccharomycopsis fibuligera as shown in FIG. 19. Body weight, gross blood, and stool consistency were analyzed on a daily basis. Paraffin embedded colon tissues were sectioned and stained with H&E for pathology assessment. Assessment of the severity of colitis was measured by the disease activity index (DAI) as previously described.
LI-LP lymphocytes were isolated as previously described with some modifications. Briefly, colons were isolated, opened longitudinally, washed of fecal contents and then cut into 1 cm pieces. Intestinal pieces were transferred into HBSS medium (Sigma), supplemented with 5% fetal bovine serum (FBS) and 2 mM EDTA, and were shaken for 15 min at 37° C. The suspensions were filtered through a mesh and the filtrate containing the mucosa and mucosa associated microflora was used further for DNA isolation. The remaining tissue was washed, cut in small pieces and subsequently incubated in digestion medium consisting of RPMI 1640, 5% FBS, 0.5 mg/ml collagenase type VIII (Sigma), 5 U/ml DNase (Roche Diagnostics), 100 IU/ml penicillin and 100 μg/ml streptomycin for 30 min at 37° C. by gentle shaking. The cell suspensions were filtered through a mesh, and then centrifuged at 1300 rpm. Cell suspensions were cultured overnight and TNF-α production by colonic cells was measured by ELISA (BioLegend, San Diego, Calif.).
Cell suspensions were prepared from MLNs and the LI-LP as described above. Cells were incubated with 50 ng/ml phorbol 12-myristate 13-acetate (PMA; Sigma-Aldrich), 500 ng/ml ionomycin (Sigma-Aldrich) and 10 μg/ml Brefeldin A (BFA; Sigma-Aldrich) in complete RPMI media at 37° C. for 6 h. After surface staining with CD4, cells were permeabilized and intracellular cytokine staining was performed using APC-labeled anti-IFN-γ mAb (XMG1.2; BD Biosciences) and PE-labeled anti-IL-17 mAb (TC11-18H10; BD Biosciences) according to the manufacturer's instructions. Flow cytometry was performed using a LSRII (BD Biosciences) and data were analyzed with FlowJo software (TreeStar Inc.).
For detection of cytokines by ELISA, MLN cells and LI-LP lymphocytes were stimulated with 10 μg/ml plate bound anti-CD3 and anti-CD28 antibodies (BioLegend, San Diego, Calif.). Supernatants were collected after 36 hrs and analyzed for IFN-γ and IL-17 production by ELISA (BioLegend, San Diego, Calif.).
Tissue samples from the proximal and distal colon were isolated and homogenized. RNA was isolated by using RNeasy Mini Kit (Qiagen) and reverse transcribed. Real-time RT-PCR analyses were done on the Applied Biosystems 7500 Fast Real-Time PCR System with the SYBR Green PCR kit as instructed by the manufacturer (Applied Biosystems). […] Samples were analyzed for gene expression using the following primers: […]

intestinal fungi = experiment: Depletion of intestinal fungi by fluconazole, colon sections stained with sDEC-1; type: in vivo, mouse; details: mice treated with fluconazole 0.5 mg/ml in drinking water for 2 weeks; sDEC-1 staining of colon sections
Protocol: OCT-embedded intestinal specimens were sectioned, mounted on microscope slides and then incubated for 40 min in PBS containing 2% FCS. Murine soluble Dectin-1 (sDec-1) was generated and biotin-labeled as previously described. sDec-1 (10 μg/ml) was fluorescently labeled with streptavidin-Alexa 647 (2 μg/ml, Invitrogen) (sDec-1-Alexa647), and intestinal sections were stained for 1 hr. To block Dectin-1 interaction. sDec-1-Alexa647 was incubated with 1 μg/ml laminarin (soluble β-glucan from Laminaria digitata, Sigma) and intestinal sections were stained as previously described. Alternatively, intestinal sections were stained with FITC conjugated rabbit anti-Candida polyclonal antibody (Meridian Life Science, Cincinnati, Ohio). […] Therefore throughout this study we have referred to the antibody as an “anti-fungal antibody”. Slides were rinsed with PBS and stained for 5 min with 0.1 μg/ml 4′,6-diamidino-2-phenylindole (DAPI, Invitrogen) and overlaid with mounting medium (Vectashield; Vector, Burlingame, Calif.). Slides were examined using a Zeiss Axio Observer Fluorescence microscope. All compared images were collected and processed identically. Colons from Fluconazole (0.5 mg/ml for 2 weeks in the drinking water) treated mice were used in control staining.

[1] = fluconazole in drinking water, DSS colitis

OC(Cn1cncn1)(Cn1cncn1)c1ccc(F)cc1F [fluconazole]
weight loss during colitis (DSS colitis): reduced weight loss
weight loss during colitis (DSS colitis; listed as Fluconazole): significantly abrogated weight loss
colitis overall (DSS colitis; fluconazole in drinking water for 14 days starting 2 days prior to DSS): ameliorates colitis
histological disease characteristics (histology score) (DSS colitis; fluconazole in drinking water, 4 days after the 7 days of DSS): milder histological disease characteristics
Th1 and Th17 responses (IL-17 and IFN-γ producing CD4+ T cells in LI-LP, production in MLNs) (DSS colitis; [1]): decreased Th1 and Th17 responses
production of inflammatory cytokines in the colon (DSS colitis; [1]): decreased production of inflammatory cytokines
presence of fungi in the intestine (intestinal fungi): substantially reduces the presence of fungi; also recorded: suppressed fungal growth

— patent publication US9782389B2, “Fungal mycobiome as probiotics, diagnostics and therapeutics” (Cedars-Sinai Medical Center, priority 2012, dated 2017)
